Experiments:
Assay type in all cases: cell-based, human
[1] = system: NSCLC cells (A549, H23, and H292); experiment: MTT cell viability assay, statements over all lung cancer lines; settings: summary over A549, H23 and H292, 24 h
Description: (§1) The cell viability was assessed using an MTT assay, determining the half-maximal inhibitory concentration (IC50) to screen right-half RT analogs (DH_18, DH_21, DH_32, DH_35, DH_38, and DH_39). Human NSCLC cells (A549, H23, and H292) were seeded in a 96-well cell culture plate at a density of 1 × 10^4 cells per well and incubated for 24 h at 37 °C. Subsequently, the culture medium was aspirated, and a complete medium with varying concentrations (0–100 μM) of right-half RT analogs was added for 24 h. Following the removal of the compound-containing medium, an MTT reagent at a concentration of 4 mg/mL was applied and incubated for 3 h at 37 °C. The MTT reagent was replaced with 100 μL of DMSO to dissolve the formazan crystals. The measurement of the formazan product was conducted at 570 nm utilizing a microplate reader. RT served as the positive control in this experiment.

H23 cells = experiment: MTT cell viability assay; settings: Homo sapiens, NCI-H23, H23, 24 h treatment
Description: as §1

A549 cells = experiment: MTT cell viability assay; settings: Homo sapiens, A549, 24 h treatment
Description: as §1

H292 cells = experiment: MTT cell viability assay; settings: Homo sapiens, NCI-H292, H292, 24 h treatment
Description: as §1

[2] = system: CSC spheroids of A549, H23, and H292 cells; experiment: 3D CSC spheroid formation with immunofluorescence; settings: 50 nM, 24 h, immunofluorescence
Description: A three-dimensional (3D) spheroid was employed to generate the spheroids containing CSC subpopulations from lung cancer cells. For CSC-rich population establishment, the spheroid culture assay used in this study was slightly modified from a previously described method. Lung cancer cells, specifically NSCLC cells (A549, H23, and H292), were seeded onto a 24-well ultra-low attachment plate, with approximately density of 2.5 × 10^3 cells per well in a medium with a 1% FBS and Nutristem mix. The primary spheroids were allowed to form for 7 days. Every 2 days, fresh medium with 1% FBS and Nutristem mix was replenished. On day 7 of primary spheroid culture, primary spheroids were resuspended into single cells using trypsin, and again 2.5 × 10^3 cells/well were seeded into a 24-well ultra-low attachment plate. Secondary spheroids were allowed to form for 10 days. After 10 days, the secondary spheroids were treated with 50 nM concentration DH_32 for 24 h treatment. The spheroids that had undergone treatment were retrieved through centrifugation at 1000× g for 30 s and then rinsed with PBS. The spheroids were fixed with 4% paraformaldehyde in a 50 μL PBS solution for 20 min at room temperature, and then they were made permeable by treating them with 0.1% Triton X in PBS for 5 min at room temperature. The spheroids were exposed to a mixture of 5% FBS and 2% BSA in PBS for 1 h at room temperature to prevent non-specific protein interactions. Subsequently, the spheroids were incubated with primary antibodies (CD133, CD44, and OCT4) at a 1:250 dilution in a 30 μL PBS solution containing 2.5% FBS and 1% BSA, and this incubation took place overnight at 4 °C. On the subsequent day, the spheroids were rinsed with PBS and then exposed to secondary antibodies (Alexa Fluor 594-conjugated goat anti-rabbit IgG (H+L) and Alexa Fluor 488-conjugated goat anti-mouse IgG (H+L)) at a 1:500 dilution in a 30 μL PBS solution containing 2.5% FBS and 1% BSA at room temperature for 1 h 30 min. These spheroids were subjected to staining with Hoechst 33342 (Sigma, St. Louis, MO, USA) at a concentration of 10 μg/mL for a duration of 15 min at room temperature. Subsequently, the fluorescence signals were observed using a fluorescence microscope (Olympus IX 51 with DP70; Olympus America Inc., Center Valley, PA, USA). The intensity of fluorescence was quantified using Image J software. NSCLC spheroids treated with RT at 50 nM and cisplatin at 50 nM served as the positive control.

| SMILES | IC50 ([1]; Homo sapiens, 24 h) | IC50 [1] | IC50 (H23 cells) | IC50 (A549 cells) | IC50 (H292 cells) | levels of CD133, CD44, and OCT4 in CSC spheroids [2] |
| --- | --- | --- | --- | --- | --- | --- |
| COC1=C(C)C(=O)C2=C(C1=O)[C@@H]1CN(Cc3ccccn3)[C@@H](C#N)[C@H](C2)N1C [DH_18, (1R,4R,5S)-9-methoxy-8,11-dimethyl-7,10-dioxo-3-(pyridin-2-ylmethyl)-1,2,3,4,5,6,7,10-octahydro-1,5-epiminobenzo[d]azocine-4-carbonitrile] | 28 to 77 µM | ~30 µM | 28.1 ± 0.83 µM | 28 ± 0.86 µM | 29.5 ± 0.75 µM |  |
| COC1=C(C)C(=O)C2=C(C1=O)[C@@H]1CN(Cc3cccnc3)[C@@H](C#N)[C@H](C2)N1C [DH_21, (1R,4R,5S)-9-methoxy-8,11-dimethyl-7,10-dioxo-3-(pyridin-3-ylmethyl)-1,2,3,4,5,6,7,10-octahydro-1,5-epiminobenzo[d]azocine-4-carbonitrile] | 28 to 77 µM |  | 49.4 ± 1.01 µM | 51.4 ± 1.5 µM | 54.1 ± 1.15 µM |  |
| C#CCN1C[C@H]2C3=C(C[C@@H]([C@@H]1C#N)N2C)C(=O)C(C)=C(OC)C3=O [DH_35, (1R,4R,5S)-9-methoxy-8,11-dimethyl-7,10-dioxo-3-(prop-2-yn-1-yl)-1,2,3,4,5,6,7,10-octahydro-1,5-epiminobenzo[d]azocine-4-carbonitrile] | 28 to 77 µM |  | 56 ± 1.78 µM | 76.3 ± 2.98 µM | 57.7 ± 1.45 µM |  |
| COC1=C(C)C(=O)C2=C(C1=O)[C@@H]1CN(CCO)[C@@H](C#N)[C@H](C2)N1C [DH_38, (1R,4R,5S)-3-(2-hydroxyethyl)-9-methoxy-8,11-dimethyl-7,10-dioxo-1,2,3,4,5,6,7,10-octahydro-1,5-epiminobenzo[d]azocine-4-carbonitrile] | 28 to 77 µM |  | 50.4 ± 1.18 µM | 43.8 ± 1.43 µM | 43.7 ± 0.86 µM |  |
| COC1=C(C)C(=O)C2=C(C1=O)[C@@H]1CN(CCN3C(=O)c4ccccc4C3=O)[C@@H](C#N)[C@H](C2)N1C [DH_39, (1R,4R,5S)-3-(2-{1,3-dioxoisoindolin-2-yl}ethyl)-9-methoxy-8,11-dimethyl-7,10-dioxo-1,2,3,4,5,6,7,10-octahydro-1,5-epiminobenzo[d]azocine-4-carbonitrile] | 28 to 77 µM |  | 73.3 ± 1.17 µM | 70 ± 0.85 µM | 65.4 ± 1.13 µM |  |
| N.N.[Cl][Pt][Cl] [cisplatin, reference compound] |  |  |  |  |  | could not alter CSC markers |

— publication PMC10744608, “Simplified Synthesis of Renieramycin T Derivatives to Target Cancer Stem Cells via β-Catenin Proteasomal Degradation in Human Lung Cancer” (Marine Drugs, 2023)
